Earlier results, collected in patent US7723019B2, “Organic cation transporter preferentially expressed in hematopoietic cells and leukemias and uses thereof” (University of Kentucky Research Foundation, priority 2003, dated 2010).
Where “and” joins values, the source holds several entries; their conditions need not be identical. Identical values can stand only once. Like-named read-outs stand apart in the source and are kept apart here.

Experiments:
OCT2 (SLC22A2) = molecular target: T1, OCT2 (SLC22A2) (Homo sapiens, UniProt O15244)
T1 sequence (O15244 1-555): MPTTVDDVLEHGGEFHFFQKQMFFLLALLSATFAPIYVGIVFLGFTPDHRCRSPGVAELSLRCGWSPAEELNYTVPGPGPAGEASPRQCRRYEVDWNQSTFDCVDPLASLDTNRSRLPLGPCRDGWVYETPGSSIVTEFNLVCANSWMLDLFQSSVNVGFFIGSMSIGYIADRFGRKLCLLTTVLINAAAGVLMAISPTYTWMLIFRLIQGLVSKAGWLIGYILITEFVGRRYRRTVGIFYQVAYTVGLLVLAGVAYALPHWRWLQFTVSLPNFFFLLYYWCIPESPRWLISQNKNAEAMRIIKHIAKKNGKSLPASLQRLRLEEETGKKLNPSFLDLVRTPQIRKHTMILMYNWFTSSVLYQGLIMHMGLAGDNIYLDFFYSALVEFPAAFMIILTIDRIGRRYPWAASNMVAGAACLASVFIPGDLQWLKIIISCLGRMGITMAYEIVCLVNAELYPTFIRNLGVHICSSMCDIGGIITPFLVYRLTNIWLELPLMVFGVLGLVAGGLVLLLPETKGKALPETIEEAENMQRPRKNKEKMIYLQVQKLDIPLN

OCTN2 (SLC22A5) = molecular target: T2, OCTN2 (SLC22A5) (Homo sapiens, UniProt O76082)
T2 sequence (O76082 1-557): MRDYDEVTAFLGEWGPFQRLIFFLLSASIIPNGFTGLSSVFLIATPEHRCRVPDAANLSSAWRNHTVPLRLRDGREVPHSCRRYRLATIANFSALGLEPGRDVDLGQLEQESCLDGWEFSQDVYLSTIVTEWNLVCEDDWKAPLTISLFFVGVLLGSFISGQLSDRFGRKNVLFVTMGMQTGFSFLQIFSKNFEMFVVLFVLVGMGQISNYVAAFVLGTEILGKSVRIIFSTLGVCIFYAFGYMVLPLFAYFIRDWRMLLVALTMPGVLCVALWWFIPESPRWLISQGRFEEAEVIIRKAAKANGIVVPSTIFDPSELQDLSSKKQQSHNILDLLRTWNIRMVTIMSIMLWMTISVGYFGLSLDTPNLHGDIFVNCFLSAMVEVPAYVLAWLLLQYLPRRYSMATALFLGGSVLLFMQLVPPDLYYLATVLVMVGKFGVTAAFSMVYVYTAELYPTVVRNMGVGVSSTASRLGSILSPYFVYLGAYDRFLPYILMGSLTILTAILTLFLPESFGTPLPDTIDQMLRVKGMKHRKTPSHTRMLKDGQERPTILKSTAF

[1] = tested on: RFC1-transfected MTX^R ZR75 cell line; conditions: RFC1 transfection into transport-deficient MTX^R ZR75 cells, relative to control cell clones
[2] = tested on: reduced folate carrier (RFC); conditions: read-out: Km for MTX, approximately
OCT1 (SLC22A1) = molecular target: T3, OCT1 (SLC22A1) (Homo sapiens, UniProt O15245); conditions: OCT1, cell type Xenopus
T3 construct: host or cells: HeLa; Xenopus
T3 sequence (O15245 1-554): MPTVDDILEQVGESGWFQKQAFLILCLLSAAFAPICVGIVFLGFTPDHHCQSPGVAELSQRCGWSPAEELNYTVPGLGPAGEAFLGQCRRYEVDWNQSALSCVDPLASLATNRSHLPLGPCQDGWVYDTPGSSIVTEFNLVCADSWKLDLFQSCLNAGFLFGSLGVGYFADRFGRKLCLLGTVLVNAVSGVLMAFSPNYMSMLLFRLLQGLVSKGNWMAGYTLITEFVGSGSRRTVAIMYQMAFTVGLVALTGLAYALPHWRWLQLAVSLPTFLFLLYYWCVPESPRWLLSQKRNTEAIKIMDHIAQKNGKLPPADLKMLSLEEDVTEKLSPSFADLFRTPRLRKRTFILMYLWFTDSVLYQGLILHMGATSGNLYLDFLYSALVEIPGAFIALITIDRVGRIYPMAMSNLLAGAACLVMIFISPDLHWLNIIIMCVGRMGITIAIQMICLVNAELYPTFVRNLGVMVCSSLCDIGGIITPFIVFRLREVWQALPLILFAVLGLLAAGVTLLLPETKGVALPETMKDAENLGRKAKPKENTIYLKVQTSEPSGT

OCTN1 (SLC22A4) = molecular target: T4, OCTN1 (SLC22A4) (Homo sapiens, UniProt Q9H015); conditions: OCTN1, cell type Fibroblasts
T4 sequence (Q9H015 1-551): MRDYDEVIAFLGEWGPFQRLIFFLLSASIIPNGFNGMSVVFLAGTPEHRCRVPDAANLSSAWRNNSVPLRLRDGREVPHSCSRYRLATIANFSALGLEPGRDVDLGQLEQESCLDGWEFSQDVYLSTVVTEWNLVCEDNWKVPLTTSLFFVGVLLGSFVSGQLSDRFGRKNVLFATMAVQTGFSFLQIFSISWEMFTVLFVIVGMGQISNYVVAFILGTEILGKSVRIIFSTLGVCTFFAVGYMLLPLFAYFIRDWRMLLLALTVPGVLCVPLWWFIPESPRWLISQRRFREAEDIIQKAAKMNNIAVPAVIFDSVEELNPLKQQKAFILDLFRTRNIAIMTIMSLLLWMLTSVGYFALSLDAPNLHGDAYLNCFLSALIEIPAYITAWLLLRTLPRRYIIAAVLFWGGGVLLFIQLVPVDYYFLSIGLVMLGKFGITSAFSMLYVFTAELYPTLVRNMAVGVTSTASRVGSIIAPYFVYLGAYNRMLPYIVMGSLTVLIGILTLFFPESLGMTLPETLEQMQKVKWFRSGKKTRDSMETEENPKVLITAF

In the case of `NCCc1ccc(O)c(O)c1` [Dopamine], the KT (OCT2 (SLC22A2); OCT2, cell type HEK293) is given as 330 µM and the KT (OCT2 (SLC22A2); OCT2, cell type Xenopus) is given as 390 µM.

For `NCCc1c[nH]c2ccc(O)cc12` [Serotonin], the KT (OCT2 (SLC22A2); OCT2, cell type Xenopus) is given as 80 µM.

For `NCCc1c[nH]cn1` [Histamine], the KT (OCT2 (SLC22A2); OCT2, cell type Xenopus) is given as 1300 µM.

In the case of `CC(=O)O[C@H](CC(=O)[O-])C[N+](C)(C)C` [Acetyl-L-carnitine], the KT (OCTN2 (SLC22A5); OCTN2, cell type HEK293) is listed as 8.5 µM.

For `CN(Cc1cnc2nc(N)nc(N)c2n1)c1ccc(C(=O)N[C@@H](CCC(=O)O)C(=O)O)cc1` [MTX, Methotrexate], the “increase in 6-hour MTX uptake” value [1] is given as 20 fold, the “increase in sensitivity to MTX” value [1] is given as 250 fold and the Km [2] is given as 0.8 to 26 µM.

In the case of `NC12CC3CC(CC(C3)C1)C2` [Amantadine], the KT (OCT2 (SLC22A2); OCT2, cell type Xenopus) is given as 27 µM.

For `NC[C@H](O)c1ccc(O)c(O)c1` [Norepinephrine], the KT (OCT2 (SLC22A2); OCT2, cell type Xenopus) is listed as 1900 µM.

For `C[N+](C)(C)C[C@@H](O)CC(=O)[O-]` [D-Carnitine], the KT (OCTN2 (SLC22A5); OCTN2, cell type HEK293) is given as 10.9 µM and the KT (OCTN2 (SLC22A5); OCTN2, cell type Xenopus) is given as 98 µM.

In the case of `C[n+]1ccc(-c2ccccc2)cc1` [MPP, 1-methyl-4-phenylpyridinium], the KT (OCT2 (SLC22A2); OCT2, cell type HEK293) is given as 16 µM, the KT (OCT1 (SLC22A1)) is given as 14.6 µM and the KT (OCT3 (SLC22A3); OCT3, cell type HRPE) is given as 47 µM.

For `C[N+](C)(C)C[C@H](O)CC(=O)[O-]` [L-Carnitine], the KT (OCTN1 (SLC22A4)) is given as 6.6 µM, the KT (OCTN2 (SLC22A5); OCTN2, cell type HEK293) is given as 4.34 µM and 4.3 µM and the KT (OCTN2 (SLC22A5); OCTN2, cell type JAR) is given as 3.5 µM. The KT (OCTN2 (SLC22A5); OCTN2, cell type Xenopus) was 4.8 µM.

For `CC12CC3CC(C)(C1)CC(N)(C3)C2` [Memantine], the KT (OCT2 (SLC22A2); OCT2, cell type Xenopus) is listed as 34 µM.

For `CC[N+](CC)(CC)CC` [TEA, tetraethylammonium], the KT (OCT3 (SLC22A3); OCT3, cell type HeLa) is listed as 2500 µM.
